38 molecules from PubChem BioAssay (NCI) can be followed below.

Values joined by “and” are separate entries in the source; they are usually repeats but may differ in a detail not shown here. Identical values can stand only once.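 Method: 48-hour compound exposure of cells in 96-well plates, five concentrations, linear interpolation of endpoints. The concentration for 50% growth inhibition is given as GI50. TGI: total growth inhibition.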

What is called GI50 is the concentration that inhibits growth by half. Broadly, the TGI is the concentration giving total growth inhibition. Higher therefore signals less potent growth arrest.

For the test, the system named is MDA-MB-468 breast. The test is described as follows: DTP human tumour cell line panel, 48 h.
`COc1cc2cc(Oc3ccc(NC(=O)Nc4ccc(F)c(C(F)(F)F)c4)cc3)c(C)nc2cc1OCCN1CCCCC1`: the GI50 was 1470 nM and the TGI was 2920 nM.

As to `O=[N+]([O-])c1ccc(N/N=C\c2cc(Cl)ccc2O)nc1`, the GI50 was 2510 nM and the TGI was determined as 7250 nM.

Regarding `COc1ccc(-c2cc(-c3ccc(Nc4nc(Nc5ccc(Cl)cc5)nc(Nc5ccc(Cl)cc5)n4)cc3)nc(N)c2C#N)cc1`, the GI50 was 369 nM and the concentration for total growth inhibition (TGI) was 1960 nM.

As to `COc1cc2cc(Oc3ccc(NC(=O)Nc4cccc(C(F)(F)F)c4)cc3)c(C)nc2cc1OCCN1CCCCC1`, the GI50 is 1590 nM and the TGI came out at 3210 nM.

Turning to `CCOC(=O)c1cnc(SCc2ccc(Cl)c(Cl)c2)nc1N1CC1`, the GI50 is 2400 nM and the total growth inhibition concentration (TGI) turned out to be 6140 nM.

In the case of `CCCCCCCCCCCCCCCCCCNC(=O)[C@H]1CSC(c2ccc(OC)c(F)c2)N1` (stereo not given in full), the GI50 is 18600 nM and the TGI was over 50900 nM.

Turning to `COC(=O)[C@]12CC[C@@H](C)[C@H](C)[C@@H]1C1=CC[C@@H]3[C@@]4(C)CC(=O)[C@H](O)[C@@]5(C)COC(=C45)C[C@@]3(C)[C@]1(C)CC2`, the GI50 is 14900 nM and the TGI worked out at 30500 nM.

As to `CCCCCCCCCCCCc1ccc(C(=O)/C=C/C(=O)O)cc1`, the GI50 is 1660 nM and the TGI was determined as 3350 nM.

Regarding `Cc1cc2c(C)c3cc(C)c(N)cc3nc2cc1N`, the 50% growth inhibitory concentration (GI50) was 399 nM and the total growth inhibition concentration (TGI) amounted to 2370 nM.

As to `C1CCC([PH+](C2CCCCC2)C2CCCCC2[PH+](C2CCCCC2)C2CCCCC2)CC1.[Au].[CH-]1CCCCC1C1CCCC[N-]1` (stereo not given), the 50% growth inhibitory concentration (GI50) was 154 nM and the TGI was determined as 641 nM.

With `C[C@@H](c1ccc2nccn2c1)n1nnc2ncc(-c3cnn(C)c3)nc21`, the GI50 was 38600 nM and the TGI was over 100000 nM.

Take `OB([O][Hg][c]1ccccc1)[O][Hg][c]1ccccc1`: the 50% growth inhibitory concentration (GI50) was 88.5 nM and the TGI was 303 nM.

For the molecule `Cc1cc(NC(=O)C2c3ccccc3C(=O)N(CC(C)C)C2c2cccs2)no1` (stereo not given), the GI50 was 43800 nM and the concentration for total growth inhibition (TGI) was over 100000 nM.

As to `O=C1C=C[C@]2(C[C@@H](c3cccc(C(F)(F)F)c3)O[C@@H](c3cccc(C(F)(F)F)c3)O2)O1`, the GI50 was 1670 nM and the concentration for total growth inhibition (TGI) stood at 3590 nM.

`O/N=C1\CCc2cc(-c3nc(C4CCNCC4)[nH]c3-c3ccncc3)ccc21`: the GI50 was over 25000 nM and the TGI is over 25000 nM.

Take `O=C(Nc1ccncc1)C(=O)c1cn(S(=O)(=O)c2ccc(Br)cc2)c2ccccc12`: the GI50 was 608 nM and the concentration for total growth inhibition (TGI) was determined as 7840 nM.

On to `COc1cc(-c2cc(C(=O)N3CCN(C(=O)c4ccccc4NCc4ccco4)CC3)nc3cc(-c4ccccc4)nn23)cc(OC)c1OC`, for which the GI50 was 2320 nM and the concentration for total growth inhibition (TGI) was found to be 7200 nM.

Regarding `O=C1/C(=C\c2ccc(Cl)cc2)CN(C(=S)Nc2ccccc2)C/C1=C\c1ccc(Cl)cc1`, the GI50 was 457 nM and the concentration for total growth inhibition (TGI) stood at 1660 nM.

On to `CS(=O)(=O)c1nccc(-c2c(-c3ccc(F)c(OCCc4ccc(F)cc4)c3)nc3sccn23)n1`, for which the GI50 is 1810 nM and the TGI came to 3530 nM.

Regarding `Cc1ccc(S(=O)(=O)NC(CCC(=O)Nc2ccc(Cl)cc2)C(=O)Nc2ccc(Cl)cc2)cc1` (stereo not given), the GI50 is 1290 nM and the total growth inhibition concentration (TGI) stood at 6530 nM.

Take `Cn1cc(-c2ccc(=O)n(Cc3cccc(-c4ncc(OCCN5CCOCC5)cn4)c3)n2)cn1`: the GI50 was 14400 nM and the concentration for total growth inhibition (TGI) was 86800 nM.

Regarding `COc1ccc(/C(=C/c2cc(OC)c(OC)c(OC)c2)[N+](=O)[O-])cc1`, the GI50 was 2010 nM and the concentration for total growth inhibition (TGI) was 4780 nM.

In the case of `CC1(C)N=C(N)N=C(N)N1c1cccc(/C=C/C=C/c2cccc([N+](=O)[O-])c2)c1`, the GI50 was 346 nM and the TGI was 12000 nM.

`COc1ccc([C@H]2C(=O)N(c3cc(OC)c(OC)c(OC)c3)[C@@H]2c2ccc(OC)c(O)c2)cc1`: the GI50 is 23 nM and the TGI amounted to 62.8 nM.

`O=C1[C@H]2Cc3c([nH]c4ccccc34)[C@@H](c3ccc(Br)cc3)N2C(=O)CN1C1CCN(Cc2ccccc2)CC1`: the GI50 was 1140 nM and the total growth inhibition concentration (TGI) is 4850 nM.

With `COc1cc[nH]c1/C=C1\C(=O)Nc2ccc(F)c(C#C[C@@H](O)[C@@H](N)[C@@H](C)O)c21`, the GI50 was 476 nM and the concentration for total growth inhibition (TGI) stood at 1180 nM.

In the case of `CCC1(OC(=O)CN2CCN(CCO)CC2)C(=O)OCc2c1cc1n(c2=O)Cc2cc3ccccc3nc2-1` (stereo not given), the concentration for 50% growth inhibition (GI50) was 149 nM and the TGI worked out at 449 nM.

Regarding `COc1ccc(N(C)c2nc(C)nc3ccccc23)cc1`, the concentration for 50% growth inhibition (GI50) was under 10 nM and the TGI is under 10 nM.

Turning to `O=C(Nc1n[nH]c2nc(-c3ccco3)c(Br)cc12)C1CC1`, the TGI was over 25000 nM.

On to `COc1ccccc1C(=O)/C=C/c1cc2cccc(OC)c2[nH]c1=O`, for which the GI50 is 104 nM and the TGI turned out to be 2010 nM.

In the case of `C[C@H]1[C@H](OC(=O)CCC(=O)O)O[C@@H]2O[C@]3(C)CC[C@H]4[C@H](C)CC[C@@H]1[C@@]24OO3`, the GI50 is 2860 nM and the concentration for total growth inhibition (TGI) amounted to 24700 nM.

As for `COc1ccc(/C=C2\CN(C(=O)CCN3CCC(=NO)CC3)C/C(=C\c3ccc(OC)cc3)C2=O)cc1`, the GI50 was 2010 nM and the TGI is 4580 nM.

As to `O=C1c2cc3c(cc2-c2c1c1cc(Cl)c(Cl)cc1c(=O)n2CCCn1ccnc1)OCO3`, the GI50 is under 10 nM and the total growth inhibition concentration (TGI) was determined as 45.8 nM.

For `COc1cc(CCc2cc(NC(=O)c3ccc(N4C[C@@H](C)N[C@@H](C)C4)cc3)n[nH]2)cc(OC)c1`, the GI50 is > 10000 nM and 8100 nM; the TGI was > 10000 nM and 20800 nM.

For `N#C/C(=C\c1c(-c2ccccc2)[nH]c2ccccc12)C(=O)c1ccc(Cl)cc1`, the GI50 was 527 nM and the concentration for total growth inhibition (TGI) was determined as 6290 nM.

`COc1cccc(NC(=O)c2sc3nc4c(cc3c2N)CCCC4)c1`: the GI50 is 239 nM and the TGI amounted to 874 nM.

In the case of `COc1cc2c(cc1OC)C(=O)C(Br)CC2` (stereo not given), the GI50 was 1280 nM and the TGI stood at 3570 nM.

`Nc1cccc2c1C(=O)N(C1CCC(=O)NC1=O)C2=O` (stereo not given): the GI50 was over 100000 nM and the total growth inhibition concentration (TGI) is over 100000 nM.
